Here are results for three compounds from ChEMBL document CHEMBL1122816, “Synthesis and activity of 5-(aminomethylene)-1,3-cyclohexanediones: enolic analogues of gamma-aminobutyric acid” (J Med Chem, 1985).

Experiment [1] addresses GABA-A receptor; anion channel. Kind of experiment: Displacement of [3H]GABA from Gamma-aminobutyric acid A (GABA-A) receptor in rat brain membranes. It is filed as cell membranes. A general note: In a radioligand displacement assay an active substance lowers the binding of a labelled ligand.
For a further experiment, the target named is GABA B receptor (Rattus norvegicus, UniProt O88871+Q9Z0U4). Kind of experiment: Displacement of [3H]baclofen from Gamma-aminobutyric acid type B receptor in rat brain membranes. Format: cell membranes.
Sequence of GABA B receptor (Q9Z0U4 whole entry): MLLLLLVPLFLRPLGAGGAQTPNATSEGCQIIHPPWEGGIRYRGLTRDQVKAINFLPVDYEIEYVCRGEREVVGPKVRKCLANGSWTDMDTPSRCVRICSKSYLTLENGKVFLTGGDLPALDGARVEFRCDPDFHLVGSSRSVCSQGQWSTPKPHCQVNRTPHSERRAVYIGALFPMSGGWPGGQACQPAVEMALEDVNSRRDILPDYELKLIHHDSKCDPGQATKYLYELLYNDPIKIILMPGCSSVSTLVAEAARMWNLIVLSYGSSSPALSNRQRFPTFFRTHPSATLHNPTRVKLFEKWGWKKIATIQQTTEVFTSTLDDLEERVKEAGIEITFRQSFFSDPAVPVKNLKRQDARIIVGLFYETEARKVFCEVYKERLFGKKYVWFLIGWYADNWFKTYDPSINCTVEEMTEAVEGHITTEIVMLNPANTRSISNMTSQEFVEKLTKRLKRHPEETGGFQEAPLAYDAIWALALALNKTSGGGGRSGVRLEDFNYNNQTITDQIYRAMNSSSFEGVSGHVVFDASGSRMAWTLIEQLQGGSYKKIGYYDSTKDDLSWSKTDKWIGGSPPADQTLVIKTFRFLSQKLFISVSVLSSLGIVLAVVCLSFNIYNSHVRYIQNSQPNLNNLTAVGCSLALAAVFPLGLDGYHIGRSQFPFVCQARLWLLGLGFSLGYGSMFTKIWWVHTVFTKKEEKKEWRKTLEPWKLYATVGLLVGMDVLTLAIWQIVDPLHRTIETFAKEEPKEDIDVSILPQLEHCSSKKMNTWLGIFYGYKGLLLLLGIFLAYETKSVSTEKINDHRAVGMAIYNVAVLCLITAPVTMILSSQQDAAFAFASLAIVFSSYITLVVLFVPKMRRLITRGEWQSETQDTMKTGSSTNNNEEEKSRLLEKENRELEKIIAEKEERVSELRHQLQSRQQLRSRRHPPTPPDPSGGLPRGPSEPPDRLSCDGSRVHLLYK
Sequence of GABA B receptor (O88871 whole entry): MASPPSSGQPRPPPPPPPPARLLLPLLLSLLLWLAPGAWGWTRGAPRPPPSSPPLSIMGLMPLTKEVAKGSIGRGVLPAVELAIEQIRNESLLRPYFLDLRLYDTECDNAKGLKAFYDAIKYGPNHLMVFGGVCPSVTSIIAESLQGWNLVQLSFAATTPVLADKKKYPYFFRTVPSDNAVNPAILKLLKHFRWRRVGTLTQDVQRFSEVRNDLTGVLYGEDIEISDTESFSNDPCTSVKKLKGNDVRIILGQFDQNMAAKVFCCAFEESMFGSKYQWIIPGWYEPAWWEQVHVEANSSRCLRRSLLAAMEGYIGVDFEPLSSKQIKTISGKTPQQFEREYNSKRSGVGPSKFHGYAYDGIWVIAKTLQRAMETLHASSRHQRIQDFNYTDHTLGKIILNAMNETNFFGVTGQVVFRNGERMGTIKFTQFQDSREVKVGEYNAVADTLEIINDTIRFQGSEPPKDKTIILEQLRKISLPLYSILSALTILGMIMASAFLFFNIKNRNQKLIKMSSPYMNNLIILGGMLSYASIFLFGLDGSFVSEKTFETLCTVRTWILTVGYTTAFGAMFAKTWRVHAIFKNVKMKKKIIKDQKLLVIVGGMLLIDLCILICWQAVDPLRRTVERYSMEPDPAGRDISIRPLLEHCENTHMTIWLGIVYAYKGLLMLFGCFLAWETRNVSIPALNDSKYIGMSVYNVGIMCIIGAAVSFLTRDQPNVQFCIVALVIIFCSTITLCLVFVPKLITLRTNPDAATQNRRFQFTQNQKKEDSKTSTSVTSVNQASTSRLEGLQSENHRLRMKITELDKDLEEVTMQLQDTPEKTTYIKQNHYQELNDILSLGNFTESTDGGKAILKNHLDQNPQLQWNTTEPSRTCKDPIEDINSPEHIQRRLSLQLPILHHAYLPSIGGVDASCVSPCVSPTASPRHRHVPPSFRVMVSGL
The species entered for the next experiment is Rattus norvegicus. Kind of experiment: The inhibitory concentration of compound against sodium dependent [3H]GABA synaptosomal uptake in rats. Format: functional.

The structures appear in SMILES notation.

For orientation: IC50 means the concentration at which inhibition is half-maximal. The low end stands for inhibition by little substance, the high end for a need for much substance.

For the compound `O=C(O)C1CCCNC1` (stereo not drawn) [NIPECOTIC ACID], the 50% inhibitory concentration (IC50) is > 100 µM in experiment [1], > 100 µM at GABA B receptor and 5.6 µM in the experiment listed under Rattus norvegicus.
Consider `NCC1CC(=O)C=C(O)C1` (stereo not drawn), for which the values for the IC50 (in experiment [1]; on GABA B receptor; in the experiment listed under Rattus norvegicus) were 65 µM, > 100 µM and > 100 µM, respectively.
With `NCC(CC(=O)O)c1ccc(Cl)cc1` (stereo not drawn) [BACLOFEN], the figures for the IC50 (in experiment [1]; in the experiment filed under Rattus norvegicus) were 0.03 µM and 1.8 µM, respectively.
